Columns and labels:
LFA-1 receptor = target: T1, LFA-1 receptor (Mus musculus, UniProt P24063); assay: SPECT/CT imaging of mice after intravenous injection of the radioligand; format: in vivo
T1 construct: Leukocyte function-associated antigen-1 (LFA-1) receptors are normally expressed by all white blood cells; from tissue; host or cells: live mice (leukocytes in vivo)
Experimental: Mice are imaged with the Bioscan NanoSPECT/CT imaging system. Dynamic images are obtained immediately following injection of ˜750 uCi of ^111In-ROTA-alkylamino-NorBIRT intravenously. Static images are also obtained at 2, 4, and 24 hours post injection. Images are individually characterized.

[1] = Biodistribution study (gross dissection and tissue harvest); format: in vivo, mice; settings: dissection at 18 and 24 hrs post-inoculation
Experimental: […] Results are evaluated as the percent injected dose per gram of tissue. The organs assessed are the heart, blood, stomach, liver, spleen, adrenals, kidneys, bone, muscle, bladder, testes, as well as the abcess or site of infection.

T1 sequence (P24063 24-1162): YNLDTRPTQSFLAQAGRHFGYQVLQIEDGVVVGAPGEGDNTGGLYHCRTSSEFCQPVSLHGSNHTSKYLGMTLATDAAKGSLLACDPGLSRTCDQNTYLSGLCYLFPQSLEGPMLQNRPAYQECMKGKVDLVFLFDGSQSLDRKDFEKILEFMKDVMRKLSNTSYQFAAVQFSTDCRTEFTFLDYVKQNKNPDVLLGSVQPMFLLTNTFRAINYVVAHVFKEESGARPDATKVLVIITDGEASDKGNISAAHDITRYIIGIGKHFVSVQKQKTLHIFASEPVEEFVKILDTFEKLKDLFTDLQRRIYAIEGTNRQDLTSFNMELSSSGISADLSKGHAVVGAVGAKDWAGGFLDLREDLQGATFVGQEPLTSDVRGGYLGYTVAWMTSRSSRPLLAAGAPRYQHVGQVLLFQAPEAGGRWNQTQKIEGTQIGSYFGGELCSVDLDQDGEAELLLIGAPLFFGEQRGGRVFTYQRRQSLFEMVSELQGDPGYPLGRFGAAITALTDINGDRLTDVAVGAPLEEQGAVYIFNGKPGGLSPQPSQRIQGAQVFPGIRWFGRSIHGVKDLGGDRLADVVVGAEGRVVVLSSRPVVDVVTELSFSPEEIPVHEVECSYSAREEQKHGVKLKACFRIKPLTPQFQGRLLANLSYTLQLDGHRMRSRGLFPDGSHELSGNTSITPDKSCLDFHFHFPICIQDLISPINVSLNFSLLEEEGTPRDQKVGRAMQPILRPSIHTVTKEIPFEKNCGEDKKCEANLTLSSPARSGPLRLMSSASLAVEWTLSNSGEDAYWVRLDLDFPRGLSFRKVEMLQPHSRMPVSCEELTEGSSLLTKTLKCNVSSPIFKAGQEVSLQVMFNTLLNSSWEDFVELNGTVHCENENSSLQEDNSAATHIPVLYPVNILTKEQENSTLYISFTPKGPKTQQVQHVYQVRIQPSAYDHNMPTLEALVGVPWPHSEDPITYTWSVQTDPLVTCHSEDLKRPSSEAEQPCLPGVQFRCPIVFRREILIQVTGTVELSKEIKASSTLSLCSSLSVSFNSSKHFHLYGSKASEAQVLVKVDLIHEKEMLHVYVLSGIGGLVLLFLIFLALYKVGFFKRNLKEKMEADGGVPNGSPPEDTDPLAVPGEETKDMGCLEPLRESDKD
T1 sequence (P11835 24-771 partner): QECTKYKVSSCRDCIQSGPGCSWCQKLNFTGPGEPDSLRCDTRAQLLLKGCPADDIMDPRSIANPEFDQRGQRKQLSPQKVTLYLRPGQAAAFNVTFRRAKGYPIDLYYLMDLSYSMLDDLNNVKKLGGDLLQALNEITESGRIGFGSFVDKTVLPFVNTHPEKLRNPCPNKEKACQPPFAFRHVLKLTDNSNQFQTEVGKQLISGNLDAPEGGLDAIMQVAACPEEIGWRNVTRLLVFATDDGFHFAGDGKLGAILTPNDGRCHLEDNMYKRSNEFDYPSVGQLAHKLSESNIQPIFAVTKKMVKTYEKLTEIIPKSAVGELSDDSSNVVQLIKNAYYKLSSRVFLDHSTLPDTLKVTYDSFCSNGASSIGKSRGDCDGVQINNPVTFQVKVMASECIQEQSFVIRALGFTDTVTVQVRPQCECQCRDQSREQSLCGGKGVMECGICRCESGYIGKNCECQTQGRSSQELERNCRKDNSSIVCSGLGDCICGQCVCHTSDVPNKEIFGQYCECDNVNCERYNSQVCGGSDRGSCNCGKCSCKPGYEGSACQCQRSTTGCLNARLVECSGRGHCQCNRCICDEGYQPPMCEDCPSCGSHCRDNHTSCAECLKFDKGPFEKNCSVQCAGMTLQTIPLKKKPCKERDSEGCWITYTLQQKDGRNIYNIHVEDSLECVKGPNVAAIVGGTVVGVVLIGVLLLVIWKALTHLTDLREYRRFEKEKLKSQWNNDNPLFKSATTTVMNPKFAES

**Q.** With “^111In-DOTA-alkylamino-NorBIRT [^111In-alkylaminoNorBIRT]” as the substance, how does the “uptake/retention at the tumor, early images” value (LFA-1 receptor; 5 minutes post-injection) read?
**A.** high concentrations

**Q.** And the “focal retention in other tissues” value (LFA-1 receptor; SPECT/CT images)?
**A.** no focal retention in any other tissues

**Q.** What about the “radioactivity in the bladder” value (LFA-1 receptor; SPECT/CT images) of the same substance?
**A.** prompt and significant radioactivity in the bladder

**Q.** And the “uptake in the tumor in SPECT/CT images” value (LFA-1 receptor; SPECT/CT images, mice, i.v.)?
**A.** focal uptake in the tumor

**Q.** What about the “persistence of focal tumor uptake” value (LFA-1 receptor; all time points, including 24 hours post-injection) of the same substance?
**A.** persists at all time points

**Q.** And the “urinary excretion in SPECT/CT images” value (LFA-1 receptor; as soon as 5 minutes post-injection and at all subsequent time points)?
**A.** prompt and significant urinary excretion

**Q.** And the “selectivity as imaging probe for LFA-1 receptor expression” value (LFA-1 receptor; in vivo SPECT/PET imaging of tumor sites)?
**A.** highly selective imaging probes

**Q.** What about the “agreement of biodistribution data with image-based pharmacokinetic data” value [1] of the same substance?
**A.** correlate well with image-based pharmacokinetic data
